Measured values taken from article PMC12610503, “The Molecular Mechanism of PDE1 Regulation” (Cells, 2025).
Entries after “also recorded” stand apart in the source; their conditions may differ. Ends that are not written are not given here.

Key:
[1] = tested on: PDE1/4 chimera (PDE1B regulatory domain fused to the PDE4D catalytic domain); assay: PDE4 inhibitor inhibition of the PDE1/4 chimera (SPA); type: biochemical, human; details: [3H]-cAMP; for Inhibition of PDE1/4 chimera activity (in words) / Rolipram potency on PDE1/4 chimera relative to PDE4D catalytic domain (in words) / Rolipram affinity/potency boost on calcium/calmodulin-activated PDE1/4 chimera (in words): pH 7.2, 1 h, room temperature; for Rolipram potency on PDE1/4 chimera relative to PDE4D catalytic domain (in words): IC50, 3–5 independent experiments, without calcium/calmodulin activation; for Rolipram affinity/potency boost on calcium/calmodulin-activated PDE1/4 chimera (in words): chimera activated by calcium/calmodulin
Text: (§1) Human PDE1B1 (Refseq: NM_000924.4) and its N-terminal deletion constructs were cloned into BamH1 and Xho1 sites of pcDNA3.1(+) using PCR. The stated boundary and amino acid positions for mutants and deletion constructs are based on the PDE1B1 isoform (Refseq: NP_000915). For all N-terminal constructs, a start codon was introduced upstream of the indicated boundary, resulting in a methionine preceding the amino acid specified by the N-terminal boundaries. Point mutations and internal deletions were generated using the QuickChange^TM site-directed mutagenesis method, as previously described. The PDE1B-PDE4D chimera was generated by inserting the human PDE4D catalytic domain with a PCR-introduced N-terminal BspE1 site into a pcDNA3.1-PDE1B (82-end) construct using an internal BspE1 site at the junction of the regulatory and catalytic domain and an Xho1 site downstream of the stop codon. All constructs were validated through sequencing. Maps and sequences are available upon request. Alignments were generated using Geneious Prime (v 2024.0.7). Amino acids are colored according to the RasMol color scheme, and similarities are indicated according to the BLOSUM substitution matrix.
Plasmids were transiently transfected into HEK293 cells using Lipofectamine 2000 (Thermo Fisher, Waltham, MA, USA) according to the manufacturer’s instructions. For each well of a 6-well plate, 5 µg plasmid and 10 µL Lipofectamine 2000 were used.
Next, 48 h after transfection, cells were washed once with ice-cold PBS, scraped off into 2 mL PBS, and pelleted via centrifugation at 700× g for 5 min at 4 °C. The resulting cell pellet was frozen. Later, the pellet was thawed and resuspended in 0.5 mL of lysis buffer 50 mM Tris-HCL (pH 8.0) (Sigma-Aldrich, T3253, St. Louis, MO, USA), 1 mM MgCl2, and Complete ULTRA protease inhibitor cocktail (Roche, 05892970001, Basel, Switzerland). The lysate was then centrifuged at 20.000× g for 10 min at 4 °C to remove nuclei and membranes. Then, 0.05% Tween20 (Sigma-Aldrich, P2287) (final concentration) was added to the supernatant containing the cytosolic PDE1 before it was aliquoted and snap frozen.
PDE activity was measured using a scintillation proximity assay (SPA)-based method, similar to that previously described. Briefly, assays were conducted in 96-well plates using a buffer containing 40 mM Hepes (pH 7.2), 140 mM KCl, and 1.5 mM MgCl2. In each well, 0.005–0.05 µL PDE lysate was mixed with or without final concentrations of 50 µM CaCl2 and 50 nM calmodulin (Sigma-Aldrich, P1431) in a volume of 55 µL, and allowed to stand for 5 min at room temperature. Lysate amounts were adjusted to ensure that less than 30% of the tritiated substrate was hydrolyzed. Next, 10 µL tritiated cyclic nucleotide substrate ([3H]-cGMP for PDE1 and [3H]-cAMP for PDE4 and the PDE1/4 chimera) was added, and the reaction was allowed to proceed for 1 h at room temperature before 15 µL of 8 mg/mL phosphodiesterase SPA beads (Perkin Elmer, RPNQ0150, Shelton, CT, USA) was added. After another hour at room temperature to allow binding of the reaction products to the beads, the plates were counted for 2 min using a liquid scintillation counter (Wallac Trilux, Turku, Finland). […] To avoid overestimating inhibition, PEP1-sol was also tested by adding it after reaction termination (i.e., after SPA bead addition) in concentration–response experiments, and pre-addition inhibition minus post-addition (apparent) inhibition at each concentration was used for IC50 calculations.
To test whether the regulatory domains are functionally transferable, we generated and expressed a PDE1/4 chimera with the regulatory domain from PDE1B fused to the catalytic domain from PDE4D (Figure S1).

[2] = tested on: PDE4 UCR2-containing isoforms; details: cited from earlier work
Text: For PDE4, the longer isoforms that contain the N-terminal upstream conserved regions (UCR1 and UCR2) are activated by phosphorylation via the cAMP-activated protein kinase A (PKA), providing feedback regulation. […] To test whether the regulatory domains are functionally transferable, we generated and expressed a PDE1/4 chimera with the regulatory domain from PDE1B fused to the catalytic domain from PDE4D (Figure S1). […] Rolipram is a selective PDE4 inhibitor with higher potency towards PD ...

[3] = target: T1, PDE1B catalytic domain (PDE1B-cata) (Homo sapiens, UniProt Q01064); assay: Inhibition of PDE1B-cata enzyme activity by inhibitory domain peptides added in trans (SPA); type: biochemical; details: [3H]-cGMP, pH 7.2, 1 h, room temperature, post-addition (apparent) inhibition subtracted, average ± SEM from 3 independent experiments
T1 construct: compared to the PDE1B catalytic domain (PDE1B-cata; 146–536); added initiator methionine (single Met before residue 146); made in house; host or cells: HEK293 cells, transiently transfected with pcDNA3.1(+) construct; cleared cytosolic lysate used, not purified
Text: as §1, with “Alignments were generated using Geneious Prime (v 2024.0.7). Amino acids are colored according to the RasMol color scheme, and similarities are indicated according to the BLOSUM substitution matrix.” left out
(§2) PDE activity was measured using a scintillation proximity assay (SPA)-based method, similar to that previously described. […] After another hour at room temperature to allow binding of the reaction products to the beads, the plates were counted for 2 min using a liquid scintillation counter (Wallac Trilux, Turku, Finland). […] Since absorbance was low, this had only a minor impact on IC50 estimates. […]

[4] = Solubility of inhibitory domain peptides; type: physicochemical
PDE1B_82–501 = assay: Calcium/calmodulin activation of PDE1B_82–501 (SPA); type: biochemical, human; details: 50 nM calmodulin and 50 µM CaCl2; deletion of 35 amino acids from C-terminal
Text: as §1, with “Alignments were generated using Geneious Prime (v 2024.0.7). Amino acids are colored according to the RasMol color scheme, and similarities are indicated according to the BLOSUM substitution matrix.” left out
as §2

T1 sequence (Q01064 146-536): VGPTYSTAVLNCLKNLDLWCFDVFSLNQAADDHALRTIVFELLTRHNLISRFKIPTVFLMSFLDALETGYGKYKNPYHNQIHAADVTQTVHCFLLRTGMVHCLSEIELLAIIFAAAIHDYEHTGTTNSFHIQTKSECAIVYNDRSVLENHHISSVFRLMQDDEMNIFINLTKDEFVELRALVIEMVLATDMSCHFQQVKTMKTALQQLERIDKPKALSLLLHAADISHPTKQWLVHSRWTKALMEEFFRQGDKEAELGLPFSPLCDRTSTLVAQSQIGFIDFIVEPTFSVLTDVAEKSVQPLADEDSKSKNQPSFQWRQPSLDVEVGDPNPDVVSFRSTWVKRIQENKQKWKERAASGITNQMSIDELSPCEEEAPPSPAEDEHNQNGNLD

**Q.** What does the source list for `O=C(Nc1c(Cl)cncc1Cl)c1ccc(OC(F)F)c(OCC2CC2)c1` [roflumilast]?
**A.** Effect of calcium/calmodulin activation on roflumilast IC50 towards chimera (in words) ([1]; 3-4 independent experiments): unaffected by; Roflumilast IC50 towards chimera compared with PDE4Dcata (in words) ([1]; 3-4 independent experiments, one-way ANOVA with Sidak's): not significantly different from PDE4D catalytic domain; Inhibition of PDE1/4 chimera activity (in words) [1]: could be inhibited; also recorded: inhibits the PDE1/4 chimera

**Q.** For `COc1ccc(C2CNC(=O)C2)cc1OC1CCCC1` (stereo not shown) [rolipram], which “Inhibition of PDE1/4 chimera activity (in words)” value [1] is on record?
**A.** The value was “could be inhibited”.

**Q.** What about the “Rolipram potency on PDE1/4 chimera relative to PDE4D catalytic domain (in words)” value [1] of the same compound?
**A.** Its value is “inhibited the PDE1/4 chimera more potently than the PDE4D catalytic domain”.

**Q.** What about the “Rolipram potency on PDE1/4 chimera relative to PDE4D catalytic domain (in words)” value ([1]; listed as Rolipram) of the same compound?
**A.** Its value is “inhibits the PDE1/4 chimera more potently than the PDE4D catalytic domain alone”.

**Q.** What about the “Rolipram affinity/potency boost on calcium/calmodulin-activated PDE1/4 chimera (in words)” value [1] of the same compound?
**A.** Its value is “affinity boost was lost when the chimera was activated by calcium/calmodulin”.

**Q.** And the “Rolipram affinity/potency boost on calcium/calmodulin-activated PDE1/4 chimera (in words)” value ([1]; listed as Rolipram)?
**A.** Its value is “increased potency is lost upon activation of the chimera by calcium/calmodulin”.

**Q.** What about the “Rolipram affinity for UCR2-containing isoforms compared to the catalytic domain alone (in words)” value ([2]; compared to the catalytic domain alone) of the same compound?
**A.** Its value is “higher affinity”.

**Q.** And the “Rolipram potency towards PDE4 isoforms containing regulatory domains (in words)” value ([2]; selective PDE4 inhibitor)?
**A.** The value was “higher potency towards PDE4 isoforms containing regulatory domains”.

**Q.** Which IC50 [3] does the source give for SDEVPSEVRDWLASTFTRQ [PEP1-sol] here?
**A.** The IC50 was 17.9 ± 2.1 µM.

**Q.** And the “Solubility (in words)” value [4]?
**A.** Its value is “more soluble variant”.

**Q.** Which “Calmodulin regulation of PDE1B_82–501 (in words)” value (PDE1B_82–501) does the source give for calmodulin here?
**A.** Its value is “no impact on calmodulin regulation of activity”.
